According to US6855728B2, “Small-molecule modulators of hepatocyte growth factor / scatter factor activities” (North Shore-Long Island Jewish Health System, priority 2001, dated 2005):

Legend:
[1] = system: HGF/SF induced proliferation of HUVEC; test: Endothelial cell (HUVEC) proliferation assay in the presence of exogenously-added HGF/SF; type: cell-based, human; settings: with HGF/SF; for inhibition at 2 µg/mL: read-out: Activity at 2 microgram/ml With HGF/SF: inhibition (blocked SF); for inhibition at 6 µg/mL: read-out: Activity at 6 microgram/ml With HGF/SF: inhibition (blocked SF); for Stimulation at 6-12 micrograms/ml With: stimulation of endothelial cell proliferation
Text: To evaluate inhibitors of activity, compounds may be evaluated directly for anti-proliferative activities, such as the inhibition of cellular proliferation, inhibition of tumor growth, inhibition of scatter, and inhibition of gene expression, and may also be evaluated on their ability to inhibit activity when exposed to cells together with. In such instances, the scatter and/or proliferative activities induced by added will be inhibited by the attendant presence of an inhibitory compound of the invention.
(§1) Cell proliferation assays Endothelial cells (HUVECs) were seeded in 48 well plates at a density of 10,000 to 20,000 cells per well in the normal growth medium (EGM-2-Clonetics) containing 2% fetal bovine serum, FGF, VEGF, IGF, ascorbic acid, EGF, GA, heparin and hydrocortisone. The cells were grown normally in the growth medium for 24 hr at 37 degrees C. and 5% CO2. The cells were then rinsed with RPMI-1% BSA and starved for 1-2 hrs. The stock solutions of all the compounds were made at a concentration of 10 mg/ml in DMSO and diluted in RPMI-1% BSA at a final concentrations of 1 to 12 microgram/ml. The cells were then washed and treated with the compounds and incubated for another 24 hr at 37 degrees C. Then ^3H thymidine (0.5 microgram/ml in RPMI-BSA) was added to the cells and incubated at 37 degrees C. for 4 to 5 hours. The unincorporated thymidine was removed by washing the cells four times with 1× PBS. Then the cells were lysed with 0.5M NaOH for 30 min and the radioactivity counted in the beta counter.

[2] = system: Endothelial cells (HUVECs); test: Endothelial cell (HUVEC) proliferation assay, 3H thymidine incorporation, compound without added growth factor; type: cell-based, human; settings: without HGF/SF; for inhibition at 2 µg/mL / inhibition at 6 µg/mL: Homo sapiens, inhibition of HUVEC proliferation; for inhibition at 2 µg/mL / Activity at 2 microgram/ml Without HGF/SF (result in words) / Activity at 2 microgram/ml Without HGF/SF: stimulation: 2 microgram/ml; for Inhibition at 6-12 micrograms/ml Without HGF/SF: inhibition of endothelial cell proliferation; for Stimulation at 6-12 micrograms/ml Without HGF/SF: stimulation of endothelial cell proliferation
Protocol: as §1, with “counter. […]” for “counter.”

[3] = Homo sapiens, 2 microgram/ml, inhibition of HUVEC proliferation
[4] = Homo sapiens, 6 microgram/ml, inhibition of HUVEC proliferation
[5] = inhibition of endothelial cell proliferation
[6] = stimulation of HUVEC proliferation

SMILES | Activity at 6 microgram/ml Without HGF/SF (result in words) ([2]; 6 microgram/ml) | inhibition at 6 µg/mL [1, 4] [%] | Activity at 2 microgram/ml Without HGF/SF (result in words) [2] | Activity at 2 microgram/ml With HGF/SF (result in words) ([1]; 2 microgram/ml) | other results
COc1cc(CCC(=O)NNC(=O)c2c(-c3c(Cl)cccc3Cl)noc2C)cc(OC)c1OC [N′4-(3-(3,4,5-trimethoxyphenyl)propanoyl)-3-(2,6-dichlorophenyl)-5-methylisoxazole-4-carbohydrazide] | Cytotoxic |  |  |  | inhibition at 2 µg/mL [1, 3]: 50%; inhibition at 2 µg/mL [2]: 50%
Cc1nn(C(=O)C(C)(C)C)c(C)c1Cc1c(F)cccc1Cl [1-(4-(2-chloro-6-fluorobenzyl)-3,5-dimethyl-1H-pyrazole-1-yl)2,2-dimethylpropan-1-one] | No effect | 25 | No effect |  | inhibition at 2 µg/mL [1, 3]: 25%
c1ccc2c(c1)cc(-c1cc3ccccc3c3ccccc13)c1ccccc12 [9,9-Biphenanthrene] |  |  |  |  | Inhibition at 6-12 micrograms/ml With [1, 5]: 20-40% inhibition; Stimulation/Inhibition at 6-12 micrograms/ml Without HGF/SF (result in words) [2]: No effect
Cc1onc(-c2c(Cl)cccc2Cl)c1C(=O)NNC(=S)Oc1ccccc1[N+](=O)[O-] [2-nitrophenyl 2-((3-(2,6-dichlorophenyl)-5-methylisoxazol-4-yl)carbonyl)hydrazine-1-carbothioate] |  | 80 | No effect | No effect | inhibition at 6 µg/mL ([2]; 6 microgram/ml): 80%
Cc1onc(-c2c(Cl)cccc2Cl)c1C(=O)NN(C)C [N′4,N′4,5-trimethyl-3-(2,6-dichlorophenyl)isoxazole-4-carbohydrazide] | No effect | 40 | No effect | No effect | 
CC(=O)C1=C(C)C[C@H]2[C@@H]3CC=C4C[C@@H](O)CC[C@]4(C)[C@H]3CC[C@]12C [16 methyl-16 Dehydropregnenolone] |  |  |  |  | Stimulation at 6-12 micrograms/ml With [1]: 30% stimulation; Stimulation/Inhibition at 6-12 micrograms/ml Without HGF/SF (result in words) [2]: No effect
Cc1n[nH]c(C)c1Cc1c(F)cccc1Cl [4-(2-chloro-6-fluorobenzyl)-3,5-dimethyl-1H-pyrazole] | No effect |  |  | No effect | Activity at 6 microgram/ml With HGF/SF (result in words) ([1]; 6 microgram/ml): No effect; Activity at 2 microgram/ml Without HGF/SF: stimulation [2, 6]: 54%
Cc1onc(-c2c(Cl)cccc2Cl)c1C(=O)NNc1c(Cl)cccc1Cl [N′4,3-di(2,6-dichlorophenyl)-5-methylisoxazole-4-carbohydrazide] |  | 60 | No effect | not significant | inhibition at 6 µg/mL ([2]; 6 microgram/ml): 30%
Cc1ccc(N=Cc2ccco2)c(C)c1 [N-(furfurylidene)-2,4-xylidine] |  |  |  |  | Inhibition at 6-12 micrograms/ml With [1, 5]: 50-60% inhibition; Inhibition at 6-12 micrograms/ml Without HGF/SF [2]: 30-40% inhibition
Cc1onc(-c2c(Cl)cccc2Cl)c1C(=O)NN(C)c1ccc([N+](=O)[O-])cn1 [N′4,5-dimethyl-N′4-(5-nitro-2-pyridyl)-3-(2,6-dichlorophenyl)isoxazole-4-carbohydrazide] | No effect | 43 | No effect | No effect | 
c1ccc(-c2sc(-c3ccccc3)c(-c3ccccc3)c2-c2ccccc2)cc1 [tetraphenylthiophene] |  |  |  |  | Stimulation/Inhibition at 6-12 micrograms/ml With (result in words) [1]: No effect; Inhibition at 6-12 micrograms/ml Without HGF/SF [2]: 50% inhibition
C(=C1c2ccccc2-c2ccccc2-c2ccccc21)c1ccc(-c2ccccc2)cc1 [9-biphenyl-4-ylmethylene-9H-tri-benzo(A,C,E)-cycloheptene] |  |  |  |  | Stimulation at 6-12 micrograms/ml With [1]: 20-30% stimulation; Stimulation at 6-12 micrograms/ml Without HGF/SF [2]: 30-40% stimulation
Cc1cc(C)cc(Sc2ccc3nnc(-c4ccccc4)n3n2)c1 [6-(3,5-Dimethylphenyl) Thio)-3-Phenyl (1,2,4-Triazolo(4,3-b)pyridazine] |  |  |  |  | inhibition at 1 µg/mL ([1]; Homo sapiens, HUVEC, 1 ug/ml, inhibition of endothelial cell proliferation, read-out: Activity at 1 ug/ml concentration With HGF/SF: inhibition): 30%; Activity at 1 ug/ml concentration Without HGF/SF (result in words) ([2]; 1 ug/ml): no significant effect
Cc1onc(-c2c(Cl)cccc2Cl)c1C(=O)NNc1ccccc1 [N′4-phenyl-3-(2,6-dichlorophenyl)-5-methylisoxazole-4-carbohydrazide] | No effect | 80 | No effect |  | inhibition at 2 µg/mL [1, 3]: 40%
Cc1nc(C(=O)NNC(=O)c2c(-c3c(Cl)cccc3Cl)noc2C)cs1 [N′4-((2-methyl-1,3-thiazol-4-4yl)carbonyl)-3-(2,6-dichlorophenyl)-5-methylisoxazole-4-4carbohydrazide] |  |  | No effect |  | Activity at 2 microgram/ml With HGF/SF: inhibition (blocked SF) ([1]; 2 microgram/ml, inhibition of HUVEC proliferation): 50%; Activity at 6 microgram/ml With HGF/SF: inhibition (blocked SF) ([1]; 6 microgram/ml, inhibition of HUVEC proliferation): 50%; Activity at 6 microgram/ml Without HGF/SF: stimulation ([2]; 6 microgram/ml, stimulation of HUVEC proliferation): 52%
C[Si](C)(C)c1cccc(-c2ccccc2)c1 [(3-Biphenyl) Trimethyl silane] |  |  |  |  | Stimulation/Inhibition at 6-12 micrograms/ml With (result in words) [1]: No effect; Stimulation at 6-12 micrograms/ml Without HGF/SF [2]: 40% stimulation
CC(C)(C)c1n[nH]c(C(C)(C)C)c1Cc1c(F)cccc1Cl [3,5-di(tert-butyl)-4-(2-chloro-6-fluorobenzyl)-1H-pyrazole] | No effect | 50 |  |  | inhibition at 2 µg/mL [1, 3]: 25%; Activity at 2 microgram/ml Without HGF/SF: stimulation [2, 6]: 51%
Cc1onc(-c2c(Cl)cccc2Cl)c1C(=O)NNc1cccc(C(F)(F)F)n1 [N′4-(6-(trifluoromethyl)-2-pyridyl)-3-(2,6-dichlorophenyl)-5-methylisoxazole-4-carbohydrazide] |  | 80 |  |  | inhibition at 2 µg/mL [1, 3]: 50%; inhibition at 2 µg/mL [2]: 40%; inhibition at 6 µg/mL ([2]; 6 microgram/ml): 50%
Cc1onc(-c2c(Cl)cccc2Cl)c1C(=O)NNc1c(Cl)cncc1Cl [N′4-(3,5-dichloro-4-pyridyl)-3-(2,6-dichlorophenyl)-5-methylisoxazole-4-carbohydrazide] | No effect | 25 | No effect |  | inhibition at 2 µg/mL [1, 3]: 25%
Cc1onc(-c2c(Cl)cccc2Cl)c1C(=O)NN1CCCCCC1 [N4-azepan-1-yl-3-(2,6-dichlorophenyl)-5-methylisoxazole-4-carboxamide] |  | 50 | No effect | No effect | inhibition at 6 µg/mL ([2]; 6 microgram/ml): 50%
Cc1nn(C(=O)c2cccs2)c(C)c1Cc1c(F)cccc1Cl [(4-(2-chloro-6-fluorobenzyl)-3,5-dimethyl-1H-pyrazole-1-yl)(2-thienyl)methanone] | No effect | 61 | No effect | No effect | 
CSC(=NS(=O)(=O)c1ccccc1)NNC(=O)c1c(-c2c(Cl)cccc2Cl)noc1C [N1-((2-((3-(2,6-dichlorophenyl)-5-methylisoxazol-4-yl)carbonyl)hydrazino)(methylthio)methylidene)benzene-1-sulfonamide] | No effect | 25 | No effect | No effect | 
